Columns and labels:
[1] = test system: patients receiving sotalol or dofetilide; assay: Randomized, double-blind, placebo-controlled study: 12-lead ECG intervals in people taking dofetilide or sotalol; assay type: in vivo, human
Protocol: (§1) A randomized, double-blind, placebo-controlled study was performed at Hartford Hospital. People taking dofetilide or sotalol therapy for at least 5 half-lives were eligible for inclusion. […] After enrollment, people who discontinued their sotalol or dofetilide or altered their dosage of these drugs were excluded as well. Thirty-four participants were enrolled in the study. Three were subsequently excluded because the antiarrhythmics they were using were discontinued or the dose of the antiarrhythmics changed during the study. Given the known baseline differences in QTc intervals among men and women, each gender was randomized separately using stratified allocation. Patients completing the study (n=30) were well matched for baseline characteristics, which are reflected in Table 1. Intracellular concentrations of essential elements were available for 19 subjects. Overall 63.2% of patients (regardless of experimental group) had baseline intracellular magnesium concentrations below the normal reference range of 33.9-41.9 mEq/IU with an average level of 32.6±2.2 mEq/IU. All of the other baseline intracellular elements evaluated (phosphorus, chloride, calcium, potassium, and sodium) were within the reference range although the phosphorus was at the top of the range (average=16.7±2.8 mEq/IU with reference range of 14.2-17.0 mEq/IU).
(§2) Participants received three tablets of magnesium L-lactate (Mag-Tab SR®; Niche Pharmaceuticals; Roanoke, Tex.) or matching placebo twice daily (504 mg of elemental magnesium daily) for 48 hours (i.e. t=0, 12 h, 24 h, 36 h, and 48 h). A 12-lead electrocardiogram (ECG) was recorded at 25 mm/sec at rest prior to initiation of treatment (i.e. baseline) and at 3 and 51 hours after the first dose of magnesium (i.e. t=3 h and t=51 h) for each participant. A single blinded investigator read all ECGs using a precision ruler of 0.5 mm scale (Schlaedler-Quinzel, Inc. Parsippany, N.J.).
QT intervals were measured from the onset of the Q wave (or R/S wave if there was no Q wave) to the end of the T wave where it merges with the isoelectric baseline. The beginning and end of the QRS complex were determined by visual inspection, whereas the end of the T-wave was obtained by extrapolating the descending slope of the T-wave to the isoelectric baseline. When a U wave interrupts the down-sloping of the T-wave, the visible portion of the T wave was extrapolated to the T-P baseline to define the end of the T-wave. The R-R interval was measured from the peak of one R wave to the peak of an adjacent R wave. The QTc interval was corrected for heart rate using Bazett's formula [QTc=QT/(RR)^1/2].
Continuous data was expressed by a mean±SD. A p value less than 0.05 was considered statistically significant. The primary analysis was the intergroup comparisons of the change in QTc interval from baseline at 3 hours and 51 hours using Bazett's formula. Evaluations of the QRS, QT, and RR intervals were compared between groups at each time period as well. Mann-Whitney tests were used for all statistical analyses of continuous ECG data. Intracellular element intragroup comparisons were performed with a paired t-test. Chi^2 or Fischer's Exact tests were used for categorical comparisons. Statistical analysis was performed using SPSS version 5.

[2] = Intracellular elemental concentrations in sublingual buccal smears (EXAtest, energy-dispersive X-ray analysis); assay type: in vivo, human; conditions: p=0.002; all patients below the normal reference range at baseline reached it
Protocol: as §1, with “Patients completing the study (n=30) were well matched for baseline characteristics, which are reflected in Table 1. Intracellular concentrations of essential elements were available for 19 subjects. Overall 63.2% of patients (regardless of experimental group) had baseline intracellular magnesium concentrations below the normal reference range of 33.9-41.9 mEq/IU with an average level of 32.6±2.2 mEq/IU.” left out
as §2, with “A single blinded investigator read all ECGs using a precision ruler of 0.5 mm scale (Schlaedler-Quinzel, Inc. Parsippany, N.J.).” left out

[3] = test system: patients with atrial fibrillation; conditions: oral; two 6 month studies; cited from earlier work

Row | Structure (SMILES) | QT interval reduction ([1]; 3 hours) | reduction in the QTc interval from baseline ([1]; 3 hours, group receiving diuretics) | reduction in the QTc interval from baseline ([1]; 3 hours, no diuretic group) | reduction in the QTc interval from baseline ([1]; 51 hours, group receiving diuretics) | reduction in the QTc interval from baseline ([1]; 51 hours, no diuretic group) | change of intracellular magnesium concentrations after magnesium supplementation [2] | maintaining sinus rhythm [3]
1 | C[C@H](O)C(=O)[O-].C[C@H](O)C(=O)[O-].O.O.[Mg+2] [Magnesium L-lactate, magnesium l-lactate dihydrate] | 15 ms | 51.1 ± 42 ms | 25.5 ± 27.9 ms | 24.7 ± 24.3 ms | 26.2 ± 27.4 ms | rose significantly | 
2 | [Mg+2].[OH-].[OH-] [magnesium hydroxide] |  |  |  |  |  |  | ineffective
